Data reported in PubChem BioAssay (NCI).
“And” between values parts separate entries of the source, which are not always exact repeats. Identical values can stand only once.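 Exposure lasted 48 hours, with cells grown in 96-well plates and compounds tested at five concentrations. GI50 is the concentration that inhibits growth by half. Definition used: TGI = concentration required for complete inhibition of growth.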

Key:
Experiment in all cases: NCI anticancer screen, dose series, 48 h
[1] = tested on: K-562 leukemia
[2] = tested on: OVCAR-8 ovarian
[3] = tested on: HT29 colon
[4] = tested on: HCC-2998 colon
[5] = tested on: SN12C renal
[6] = tested on: SK-OV-3 ovarian
[7] = tested on: SNB-19 CNS
[8] = tested on: RPMI-8226 leukemia
[9] = tested on: SK-MEL-28 melanoma
[10] = tested on: BT-549 breast

| Structure (SMILES) | TGI [1] | TGI [2] | TGI [3] | TGI [4] | TGI [5] | TGI [6] | TGI [7] | TGI [8] | TGI [9] | GI50 [10] | TGI [10] | GI50 [1] | GI50 [2] | GI50 [3] | GI50 [4] | GI50 [5] | GI50 [6] | GI50 [7] | GI50 [9] | GI50 [8] |
| --- | --- | --- | --- | --- | --- | --- | --- | --- | --- | --- | --- | --- | --- | --- | --- | --- | --- | --- | --- | --- |
| COc1cccc(/C=C/C(=O)c2sc(C(N)=S)nc2C)c1O | > 100 µM | > 100 µM | > 100 µM | > 100 µM | > 100 µM | > 100 µM | > 100 µM | > 83.3 µM | > 100 µM | – | – | – | – | – | – | – | – | – | – | – |
| Cc1ccc(S(=O)(=O)N2CCN(C=S)CC2)cc1 | > 100 µM | > 100 µM | > 100 µM | > 100 µM | > 100 µM | > 100 µM | > 100 µM | – | > 100 µM | – | – | – | – | – | – | – | – | – | – | – |
| CN(C)CCC(CCN(C)C)=NO | > 100 µM | > 100 µM | > 100 µM | > 100 µM | > 100 µM | > 100 µM | > 100 µM | > 100 µM | > 100 µM | – | – | – | – | – | – | – | – | – | – | – |
| CC(=O)O[C@H]1CCN2C(=O)C=CC(OCc3ccccc3)C12 (some centres not stated) | > 100 µM | > 100 µM | > 100 µM | > 100 µM | > 100 µM | > 100 µM | – | > 100 µM | > 100 µM | – | – | – | – | – | – | – | – | – | – | – |
| COc1cc(-c2nc3sc(C)cn3c2/C=C2\C(=O)Nc3ccccc32)c(Br)c(OC)c1OC | > 100 µM | > 100 µM | 55.5 µM | 78 µM | > 100 µM | 73.8 µM | 63.9 µM | – | > 100 µM | 23.3 µM | 60.1 µM | 48.4 µM | > 100 µM | 26.9 µM | 29 µM | 45.4 µM | 28.9 µM | 23.9 µM | 39.1 µM | – |
| Clc1cc(Cl)c(OCCCCCCN2CCNCC2)c(Cl)c1 | 4.24 µM | 12.4 µM | 4.3 µM | 4.1 µM | 23.6 µM | 28.6 µM | 16.3 µM | 4.62 µM | 5.68 µM | – | – | 1.92 µM | 3.36 µM | 1.96 µM | 2 µM | 6.42 µM | 12.9 µM | 3.87 µM | 2.33 µM | 2.11 µM |
| C#CC(=O)Nc1cccc2c1cc(C)n2-c1nc2c(c(NCc3ccccc3)n1)CCCC2 | 3.45 µM | 0.779 µM | 0.121 µM | 1 µM | 0.427 µM | 1.09 µM | 2.66 µM | – | 2.79 µM | 0.137 µM | 0.324 µM | 0.368 µM | 0.136 µM | 0.0543 µM | 0.335 µM | 0.0706 µM | 0.519 µM | 0.845 µM | 1.22 µM | – |
| O=C(COc1cccc(/C=C2\CSc3ccc(Cl)cc3C2=O)c1)c1ccc(Cl)cc1 | 4.53 µM | > 100 µM | 4.18 µM | 22.6 µM | 22.4 µM | 97.5 µM | 20.8 µM | – | 30.4 µM | 15 µM | 28.8 µM | 1.83 µM | 5.1 µM | 2.08 µM | 10.7 µM | 8.89 µM | 20.4 µM | 6.57 µM | 15.6 µM | – |
| CCOC(=O)C(CCC(N)=O)(CCC(=O)OC)C(=O)OCC | > 100 µM | > 100 µM | > 100 µM | > 100 µM | > 100 µM | > 100 µM | > 100 µM | > 100 µM | > 100 µM | – | – | – | – | – | – | – | – | – | – | – |
| COc1cc(CNCCN2C(=O)c3ccc4c5c(ccc(c35)C2=O)C(=O)N(CCNCc2cc(OC)c(OC)c(OC)c2)C4=O)cc(OC)c1OC | 0.413 µM | – | – | – | 1.38 µM | 1.19 µM | 1.84 µM | – | – | 0.546 µM | 1.22 µM | 0.147 µM | – | – | – | 0.622 µM | 0.575 µM | 0.827 µM | – | – |
| CCOc1ccc(/C=C/c2cc(OC)c(OC)c(OC)c2)cc1 | > 100 µM | > 100 µM | > 100 µM | 6.32 µM | > 28 µM | > 30.2 µM | > 83.6 µM | > 100 µM | > 100 µM | – | – | – | – | – | – | – | – | – | – | – |
| O=C1C(=C([O-])c2ccccc2)C(=O)c2ccccc21.O=C1C(=C([O-])c2ccccc2)C(=O)c2ccccc21.[Mn+2] | – | > 100 µM | > 100 µM | > 100 µM | > 100 µM | – | > 100 µM | > 100 µM | > 100 µM | – | – | – | > 100 µM | 43.2 µM | > 100 µM | 91.6 µM | – | 76.7 µM | 93.8 µM | > 100 µM |
| OCC[N+]12CCCN1CCC2 | > 100 µM | > 100 µM | > 100 µM | > 100 µM | > 100 µM | > 100 µM | > 100 µM | – | > 100 µM | – | – | – | – | – | – | – | – | – | – | – |
| c1ccncc1 | > 100 µM | > 100 µM | > 100 µM | > 100 µM | > 100 µM | > 100 µM | > 100 µM | > 100 µM | > 100 µM | – | – | – | – | – | – | – | – | – | – | – |
| O=[N+]([O-])c1ccc(C(Cl)C(Cl)c2ccc(C(Cl)C(Cl)c3ccc([N+](=O)[O-])cc3[N+](=O)[O-])cc2)c([N+](=O)[O-])c1 (configuration not stated) | 0.438 µM | 2.13 µM and 0.918 µM | 4.57 µM and 1.08 µM | 6.87 µM and 1.59 µM | 5.41 µM and 1.25 µM | > 62 µM and 51.1 µM | 18.1 µM | 0.509 µM | 12.3 µM and 1.96 µM | – | – | – | 0.282 µM | 0.313 µM | 0.473 µM | 0.307 µM | 6.36 µM | – | 0.389 µM | – |
| CC1=NN(C(=O)Nc2ccc(Cl)cc2)C(=O)C2CCC(=O)N12 (configuration not stated) | > 100 µM | > 100 µM | – | > 100 µM | > 100 µM | > 100 µM | > 100 µM | > 100 µM | > 100 µM | – | – | – | – | – | – | – | – | – | – | – |
| Oc1ccc2ccccc2c1N=Nc1cc(Cl)ccc1Cl | > 50 µM | 30.2 µM | > 50 µM | – | > 50 µM | 41.2 µM | > 50 µM | > 50 µM | > 50 µM | – | > 50 µM | – | – | – | – | – | – | – | – | – |
| O=C1C=CC(=C(c2ccccc2)c2ccc(O)cc2)C=C1 | 68.1 µM | 44.1 µM | 43.4 µM | 63.9 µM | 29.7 µM | – | 31.7 µM | > 100 µM | 31.9 µM | – | 18.7 µM | – | – | – | – | – | – | – | – | – |
| Cc1ccc(/C=C(\NC(=O)c2ccccc2)c2nc3ccccc3[nH]2)cc1 | – | > 100 µM | > 100 µM | > 100 µM | > 100 µM | – | > 100 µM | – | > 100 µM | – | – | – | – | – | – | – | – | – | – | – |
